For experiment [1], the system named is Plasmodium falciparum. Nature of the experiment: Antiplasmodial activity against chloroquine-sensitive Plasmodium falciparum 3D7. Format: functional, organism-based.
Experiment [2] has as its system Plasmodium falciparum. Briefly: Antiplasmodial activity against chloroquine-resistant Plasmodium falciparum K1. The format is functional, organism-based.
For experiment [3], the system named is Plasmodium falciparum. Nature of the experiment: Antiplasmodial activity against chloroquine-resistant Plasmodium falciparum W2. The format is functional, organism-based.
Experiment [4] deals with KB. Briefly: Cytotoxicity against human KB cells assessed as growth inhibition at 10 uM. The format is functional. The settings on record: read-out: GI.
The test system of experiment [5] is KB. Briefly: Cytotoxicity against human KB cells assessed as growth inhibition at 100 uM. The settings on record: read-out: GI. Format: functional.
Experiment [6] concerns KB. Briefly: Cytotoxicity against human KB cells assessed as growth inhibition. The format is functional, cell-based.
Experiment [7] relates to Plasmodium falciparum. Nature of the experiment: Antiplasmodial activity against chloroquine-sensitive Plasmodium falciparum D10. The format is functional, organism-based.
Experiment [8] has as its system KB. Briefly: Cytotoxicity against human KB cells assessed as growth inhibition at 0.5 uM. The format is functional. The settings on record: read-out: GI.

Each structure is given as a SMILES string. pIC50: −log10 of the molar value.

Turning to `O=C1[C@@H](n2cc(-c3ccccc3)nn2)[C@@H](/C=C/c2ccccc2)N1c1ccc(Cl)cc1`, the pIC50 in experiment [1] is 5.10; in experiment [2], 5.15; in experiment [3] it was 6.00; in experiment [6], 4.07. In experiment [4], the inhibition of growth at 10 µM was determined as 16.8%. Moreover, in experiment [5], the inhibition of growth at 100 µM came to 79.3%.

In turn, `Cc1ccc(N2C(=O)[C@@H](N)[C@H]2/C=C/c2ccccc2)cc1` showed a pIC50 in experiment [7] of 4.22.

As for `N[C@@H]1C(=O)N(C2CCCCC2)[C@@H]1/C=C/c1ccccc1`, the pIC50 in experiment [7] was 4.73.

Turning to `O=C1[C@@H](n2cc(-c3ccccc3)nn2)[C@@H](/C=C/c2ccccc2)N1c1ccccc1`, the pIC50 in experiment [1] was below 4.29; in experiment [2], below 4.29; in experiment [3], 4.93; in experiment [6] it was 4.04. Also, in experiment [4], the inhibition of growth at 10 µM came out at 10%. Also, the inhibition of growth at 100 µM in experiment [5] is 58.3%.

`COC(=O)c1nnn([C@@H]2C(=O)N(c3ccc(C)cc3)[C@@H]2/C=C/c2ccccc2)c1C(=O)OC` gave a pIC50 in experiment [3] below 4.70.

Consider `O=C1[C@@H](n2cc(-c3ccccc3)nn2)[C@@H](/C=C/c2ccccc2)N1C1CCCCC1`, for which the pIC50 in experiment [1] is 5.95; in experiment [2], 5.92; in experiment [3], 6.00; in experiment [6] it was 5.08. Also, in experiment [4], the inhibition of growth at 10 µM is 76.8%. Further, the inhibition of growth at 100 µM in experiment [5] turned out to be 99.7%.

For the compound `[N-]=[N+]=N[C@@H]1C(=O)N(c2ccc(Cl)cc2)[C@@H]1/C=C/c1ccccc1`, the negative-log IC50 (pIC50) in experiment [7] is 5.35.

Compound `Cc1ccc(N2C(=O)[C@@H](N=[N+]=[N-])[C@H]2/C=C/c2ccccc2)cc1` showed a negative-log IC50 (pIC50) in experiment [7] of 5.23.

For `COC(=O)c1nnn([C@@H]2C(=O)N(C3CCCCC3)[C@@H]2/C=C/c2ccccc2)c1C(=O)OC`, the negative logarithm of the IC50 (pIC50) in experiment [1] was below 4.34; in experiment [2], below 4.34; in experiment [3], below 4.70; in experiment [6], below 3.64. Also, the inhibition of growth at 10 µM in experiment [4] is -7.7%. The inhibition of growth at 100 µM in experiment [5] came to 8.07%.

Consider `CCN(CC)CCCC(C)Nc1ccnc2cc(Cl)ccc12` (stereo unspecified) [CHLOROQUINE], for which the inhibition of growth at 10 µM in experiment [4] came out at 31.4%. In experiment [5], the inhibition of growth at 100 µM was 97%. Moreover, the pIC50 in experiment [6] was 4.44.

The compound `[N-]=[N+]=N[C@@H]1C(=O)N(C2CCCCC2)[C@@H]1/C=C/c1ccccc1` gave a negative logarithm of the IC50 (pIC50) in experiment [7] of 5.63.

In experiment [7], `N[C@@H]1C(=O)N(c2ccccc2)[C@@H]1/C=C/c1ccccc1` had a negative logarithm of the IC50 (pIC50) of 4.53.

Compound `[N-]=[N+]=N[C@@H]1C(=O)N(c2ccccc2)[C@@H]1/C=C/c1ccccc1` had a pIC50 in experiment [7] of 4.99.

On to `Cc1ccc(N2C(=O)[C@@H](n3cc(-c4ccccc4)nn3)[C@H]2/C=C/c2ccccc2)cc1`, for which the pIC50 was 4.92 in experiment [1], 5.47 in experiment [2], 6.00 in experiment [3] and 4.05 in experiment [6]. For the same compound, the inhibition of growth at 10 µM in experiment [4] came out at 14.7%. For the same compound, the inhibition of growth at 100 µM in experiment [5] worked out at 80.8%.

In the case of `COC(=O)c1nnn([C@@H]2C(=O)N(c3ccc(Cl)cc3)[C@@H]2/C=C/c2ccccc2)c1C(=O)OC`, the pIC50 is 4.60 in experiment [1], 4.91 in experiment [2], below 4.70 in experiment [3] and 3.84 in experiment [6]. Moreover, in experiment [4], the inhibition of growth at 10 µM was 19.5%. In addition, the inhibition of growth at 100 µM in experiment [5] was determined as 56.5%.

As to `COc1cc([C@@H]2c3cc4c(cc3[C@H](O)[C@H]3COC(=O)[C@H]23)OCO4)cc(OC)c1OC` [PODOFILOX], the inhibition of growth at 0.5 µM in experiment [8] was determined as 81.5%. Besides, the pIC50 in experiment [6] was 9.30.

Compound `[N-]=[N+]=N[C@@H]1C(=O)N(Cc2ccccc2)[C@@H]1/C=C/c1ccccc1` had a negative logarithm of the IC50 (pIC50) in experiment [7] of 5.33.

For the compound `N[C@@H]1C(=O)N(c2ccc(Cl)cc2)[C@@H]1/C=C/c1ccccc1`, the pIC50 in experiment [7] is 4.42.

(Values after ChEMBL document CHEMBL1806406, “Antiplasmodial and cytotoxicity evaluation of 3-functionalized 2-azetidinone derivatives” (Bioorg Med Chem Lett, 2011).)
